PMC10331946, “Characterization of Natural Compounds as Inhibitors of NS1 Endonuclease from Canine Parvovirus Type 2” (Journal of Microbiology and Biotechnology, 2023)

Experiments:
CPV-2 NS1 endonuclease = biological target: T1, CPV-2 NS1 endonuclease (Canine parvovirus type 2, UniProt P12929); assay: FRET nicking assay, inhibition of recombinant CPV-2 NS1 endonuclease; type: biochemical, Canine parvovirus type 2 (CPV-2); settings: for IC50: single compounds, 1.25 μg endonuclease, pH 7.0, 300 mM NaCl, 37°C, curcumin by 4PL, others by linear regression
T1 construct: hexahistidine (N); hexahistidine (C); made in house; host or cells: E. coli BL21 (De3) pLysS
T1 sequence (P12929 1-277): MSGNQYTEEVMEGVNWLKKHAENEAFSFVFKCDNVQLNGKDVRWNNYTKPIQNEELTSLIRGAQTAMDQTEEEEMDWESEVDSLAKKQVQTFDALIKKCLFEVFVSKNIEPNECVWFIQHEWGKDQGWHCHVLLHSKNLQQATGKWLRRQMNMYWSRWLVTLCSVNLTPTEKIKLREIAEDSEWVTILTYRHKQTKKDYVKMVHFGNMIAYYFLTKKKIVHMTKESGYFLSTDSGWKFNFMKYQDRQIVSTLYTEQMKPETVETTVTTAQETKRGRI
Text: The fluorescence resonance energy transfer (FRET) substrate, which was composed of an oligonucleotide 5¢-TAA CCT TAC CAT AAG TA↓T CAA TCT GTC TTT-3¢ labeled with carboxyfluorescein (FAM) at the 5¢-terminus and black hole quencher 1 (BHQ1) at the 3¢-terminus as the energy transfer pair, was designed and synthesized by Bioneer Corp. (Korea) (Fig. S1).
cDNA of the CPV-2 NS1 endonuclease gene was synthesized after codon optimization (Genscript, USA) based on the N-terminal amino acid sequence (amino acids 1–277 of the DNA-binding region) of CPV-2 NS1 endonuclease (GenBank Accession No. AAV36764.1) (Fig. S2). The CPV-2 NS1 endonuclease gene was imbedded into the pET-28a (+) vector (Novagen, Germany) with hexahistidine tags at the N- and C-termini. The plasmids were transformed into E. coli BL21 (De3) pLysS (Invitrogen, USA) for expression. The transformed cells were cultured in 1 L of LB containing 30 μg/ml kanamycin at 37°C until the OD600 reached 0.6. Next, protein expression was induced with 1 mM isopropyl β-D-1-thiogalactopyranoside (IPTG) at 24°C for 20 h. Cells were harvested by centrifugation at 12,000 ×g for 25 min and 4°C. The pellet was resuspended in 50 ml 50 mM Tris-HCl buffer (pH 7.0) containing 300 mM NaCl and disrupted by sonication. After centrifugation at 12,000 ×g for 30 min and 4°C, the supernatant was applied to a Ni-NTA agarose column (Qiagen, Germany) and washed with 50 mM Tris-HCl buffer (pH 8.0) containing 300 mM NaCl and 20 mM imidazole. CPV-2 NS1 endonuclease was eluted with 50 mM Tris-HCl buffer (pH 8.0) containing 300 mM NaCl, and 250 mM imidazole, and dialyzed against 50 mM Tris-HCl (pH 7.0) containing 300 mM NaCl at 4°C overnight. The purified protein was stored at −20°C until required.
CPV-2 NS1 endonuclease activity was measured using an FRET substrate as described above. The reaction mixture was composed of 1.25 μg endonuclease and 0.6 μM FRET in 50 mM Tris-HCl buffer (pH 7.0). The reaction was run at 37°C with continuous monitoring of fluorescence for 10 min. Relative fluorescence units (RFUs) were measured using a SpectraMax M3 fluorescence plate reader (Molecular Devices, USA) with an excitation wavelength of 495 nm and an emission wavelength of 517 nm.
Thirty-one compounds, extracted sesame cake, turmeric, and yerba mate were tested for inhibitory effects against CPV-2 NS1 endonuclease. For screening, thirty-one compounds, turmeric, and yerba mate were dissolved in dimethyl sulfoxide (DMSO) to 5 mM or 10 mg/ml as stock solutions. Sesame cake extract (10 mg/ml) was solubilized in water. The reaction was initiated by adding 0.6 μM FRET substrate to a mixture of 50 μM compound and 1.25 μg endonuclease in 50 mM Tris-HCl buffer (pH 7.0) containing 300 mM NaCl. The reaction was run at 37°C for 3 min using a SpectraMax M3 fluorescence plate reader with an excitation wavelength of 495 nm and emission wavelength of 517 nm. Inhibitory activity was calculated using the following equation:
Inhibition activity (%) 100-[(S-S0)÷(C-C0)]×100
where C is RFU of the control (enzyme, buffer, and substrate) after a 3 min reaction, C0 is the RFU of the control at 0 min, S is the RFU of the sample (enzyme, buffer, inhibitor, and substrate) after 3 min, and S0 is the RFU of the sample at 0 min.
We determined the 50% inhibitory concentrations (IC50) of the six natural compounds, extracted turmeric, yerba mate, and sesame cake relative to the inhibitor-free control. The IC50 values of curcumin, and extracted sesame cake were calculated using a four-parameter logistic curve (4PL) using Prism v. 8 software (GraphPad Software Inc., USA). […] 8 software.

beagle dogs = tested on: beagle dogs; set-up: method as in Yang et al. (2022), 42; settings: dietary supplementation at 2.5 g/kg, ref Yang et al. (2022), 42; cited from earlier work
all animals = tested on: all animals; set-up: method as in PMID 42087962; settings: cited from earlier work
canine = tested on: canine; set-up: method as in Campigotto et al., 34; settings: diet containing curcumin; ref Campigotto et al., 34; cited from earlier work
bird = settings: free curcumin 30 mg/kg of feed, cited from earlier work
[1] = ref Marchiori et al. (2019), 49

In the case of `O=C(OCC1OC(OC(=O)c2cc(O)c(O)c(OC(=O)c3cc(O)c(O)c(O)c3)c2)C(OC(=O)c2cc(O)c(O)c(OC(=O)c3cc(O)c(O)c(O)c3)c2)C(OC(=O)c2cc(O)c(O)c(OC(=O)c3cc(O)c(O)c(O)c3)c2)C1OC(=O)c1cc(O)c(O)c(OC(=O)c2cc(O)c(O)c(O)c2)c1)c1cc(O)c(O)c(OC(=O)c2cc(O)c(O)c(O)c2)c1` (centres unmarked) [Tannic acid], the IC50 (CPV-2 NS1 endonuclease; 0.6 μM FRET substrate, 3 min) is given as 1180 ± 100 nM, the “effect on environmental stress-induced symptoms” value (beagle dogs) is given as “relieved environmental stress-induced diarrheal symptoms, inflammatory response, and oxidative stress” and the “safe proposed maximum level in complete feed” value (all animals) is given as ≤ 15 mg/kg.

In the case of `COc1cc(/C=C/C(=O)CC(=O)/C=C/c2ccc(O)c(OC)c2)ccc1O` [Curcumin], the “effect on canine health” value (canine) is given as “enhanced canine health by stimulating the antioxidant system and erythropoiesis”, the “antioxidant capacity versus control group” value (bird) is given as “higher antioxidant capacity than the control group” and the “egg production versus controls” value (bird; [1]) is given as “higher”. The “egg weight and mass versus controls” value (bird; [1]) was “higher”, the “Inhibition (%) at 50 μM” value (CPV-2 NS1 endonuclease; 50 μM inhibitor, 0.6 μM FRET substrate, 1.25 μg enzyme, 50 mM Tris/HCl pH 7.0, 37°C, 3 min) was 100% and the inhibition at 50 µM (CPV-2 NS1 endonuclease; pH 7, read-out: Inhibition (%) at 50 μM, 50 μM inhibitor, 0.6 μM FRET substrate, 1.25 μg enzyme, 50 mM Tris/HCl pH 7.0, 37°C, 3 min) was > 95%. For the same compound, the “fold higher CPV-2 NS1 endonuclease inhibitory activity than demethoxycurcumin” value (CPV-2 NS1 endonuclease; ratio of IC50 values) was 2.17 fold and the IC50 (CPV-2 NS1 endonuclease; 0.6 μM FRET substrate, 3 min) was 290 ± 70 nM.
